Results taken from the supplement of paper PMC6045584.
± gives the standard deviation of the averaged measurements.

Compound: COc1cc([C@@H]2c3cc4c(cc3[C@@H](O[C@@H]3O[C@@H]5CO[C@@H](C)O[C@H]5[C@H](O)[C@H]3O)[C@H]3COC(=O)[C@H]23)OCO4)cc(OC)c1O [ETOPOSIDE]
Assay: surviving fraction relative to DMSO-only wells; higher = less growth inhibition
Details: 500 nM; exposure time: 5 days
Method in brief: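 Tumour cell lines in log phase were plated in 384-well plates at 250–500 cells per well, then, after 24 hours, exposed continuously for five days to inhibitors at 0.5, 1, 5, 10, 50, 100, 500 and 1000 nM. Viability came from CellTiter-Glo luminescence, and surviving fraction is that signal normalised to the median of DMSO-only wells. Plates were read after 10 minutes at room temperature, and each line, screened three times, was kept only when replicate Pearson r was >0.7 and median Z' was >0.3.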

Test System	surviving fraction
MG63 BONE	0.778 ± 0.043
MHM BONE	0.894 ± 0.018
NCIH441 LUNG	0.565 ± 0.035
NOS1 BONE	0.601 ± 0.075
NY BONE	0.797 ± 0.033
OS25HAL BONE	0.497 ± 0.022
OSHN BONE	0.452 ± 0.042
PCI30 HEADNECK	0.579 ± 0.063
RDES SOFT TISSUE	0.232 ± 0.03
S68 BREAST	0.369 ± 0.016
SAOS2 BONE	0.783 ± 0.04
SCC36 HEADNECK	0.668 ± 0.035
SCC47 HEADNECK	0.799 ± 0.07
SCC90 HEADNECK	0.999 ± 0.18
SG27 HEADNECK	1.09 ± 0.14
SG28 HEADNECK	1.05 ± 0.029
SG31 HEADNECK	0.856 ± 0.087

Test System	surviving fraction
SG32 HEADNECK	0.726 ± 0.042
SG43 HEADNECK	0.894 ± 0.07
SIHA CERVIX	0.863 ± 0.058
SJSA1 BONE	0.71 ± 0.0095
SKBR3 BREAST	0.66 ± 0.068
SNU475 LIVER	0.835 ± 0.042
SUM44 BREAST	0.928 ± 0.082
SUM149 BREAST	0.156 ± 0.0049
SUM149.B1*.S BREAST	0.445 ± 0.0065
SUM159 BREAST	0.364 ± 0.086
SYO1 SYNOVIAL	0.106 ± 0.024
T47D BREAST	0.525 ± 0.036
U2OS BONE	0.56 ± 0.026
VCAP PROSTATE	0.541 ± 0.063
VP229 BREAST	1.18 ± 0.14
YAMATO SYNOVIAL	0.636 ± 0.014
ZR751 BREAST	0.901 ± 0.078

Same assay, conditions: 1000 nM; exposure time: 5 days

Test System	surviving fraction
MDAMB453 BREAST	0.984 ± 0.078
MDAMB468 BREAST	0.937 ± 0.19
MFM223 BREAST	0.729 ± 0.052
MG63 BONE	0.265 ± 0.016
MHM BONE	0.784 ± 0.024
NCIH441 LUNG	0.524 ± 0.016
NOS1 BONE	0.623 ± 0.074
NY BONE	0.592 ± 0.021
OS25HAL BONE	0.231 ± 0.024
OSHN BONE	0.174 ± 0.0076
PCI30 HEADNECK	0.424 ± 0.031
RDES SOFT TISSUE	0.0647 ± 0.0021
S68 BREAST	0.297 ± 0.024
SAOS2 BONE	0.439 ± 0.022
SCC36 HEADNECK	0.512 ± 0.0061
SCC47 HEADNECK	0.575 ± 0.027
SCC90 HEADNECK	0.878 ± 0.21
SG27 HEADNECK	0.985 ± 0.14
SG28 HEADNECK	0.969 ± 0.11

Test System	surviving fraction
SG31 HEADNECK	0.837 ± 0.058
SG32 HEADNECK	0.608 ± 0.11
SG43 HEADNECK	0.644 ± 0.064
SIHA CERVIX	0.684 ± 0.018
SJSA1 BONE	0.503 ± 0.0085
SKBR3 BREAST	0.478 ± 0.12
SNU475 LIVER	0.571 ± 0.062
SUM44 BREAST	0.913 ± 0.036
SUM149 BREAST	0.153 ± 0.0044
SUM149.B1*.S BREAST	0.343 ± 0.013
SUM159 BREAST	0.187 ± 0.027
SYO1 SYNOVIAL	0.0784 ± 0.014
T47D BREAST	0.46 ± 0.023
U2OS BONE	0.546 ± 0.021
VCAP PROSTATE	0.421 ± 0.049
VP229 BREAST	1.15 ± 0.084
YAMATO SYNOVIAL	0.575 ± 0.031
ZR751 BREAST	0.7397 ± 0.007
